Assays:
[1] = target: human NK1 receptor (Homo sapiens (Human), UniProt P25103); test: Inhibitory effect on human NK1 receptor (substance P-induced increase in intracellular calcium concentration); format: cell-based; details: substance P 1 μM, compound 0.1 μM; read-out: SPRR (%), Substance P-Response Remaining (intracellular calcium concentration)
Protocol: Inhibitory Effect on Human NK1 Receptor
(1) Preparation of Human NK1 Receptor-Expressing Cells
Human NK1 receptor-expressing cells were prepared by the same methods as those described in 2-3 of Test Example 1.
(2) Study on Inhibitory Effect on Increase in Intracellular Calcium Concentration
The human NK1 receptor-expressing cells were washed with 300 μL/well of a washing solution (20 mM HEPES/Hank's Balanced Salt Solution (HBSS) pH 7.3). A fluorescent calcium indicator (Fluo-4 Direct Calcium Assay Kit, Life Technologies, containing 0.42 mM probenecid and 0.1% bovine serum albumin, prepared according to the protocol of the product) was added to the wells at 150 μL/well, and the plate was incubated at 37° C. for 30 minutes in an incubator. Then. DMSO solutions of a test compound, which were prepared at an 80-time higher concentration using 100% dimethyl sulfoxide (DMSO), were added to the wells at 2.5 μL/well (final concentrations of 0.1, 1 and 10 μM), and the solutions were mixed. Then, the plate was further incubated at […] for 30 minutes in an incubator. After 30 minutes, the intracellular calcium concentrations were measured immediately.
The intracellular calcium concentrations were each measured as a fluorescent signal using FDSS (registered trademark) 7000 (Hamamatsu Photonics). A substance P (Peptide Institute. Inc.) solution which was prepared at 0.4 μM or 4 μM using an assay buffer (20 mM HEPES/Hank's Balanced Salt Solution (HBSS) pH 7.3, containing 0.1% bovine serum albumin) was added automatically to each well at 50 μL/well (final concentration of 0.1 or 1 μM) 10 seconds after starting reading, and the fluorescent signal was measured up to 120 seconds.
The intracellular calcium concentration (%) of the cells to which a test compound was added was calculated by the equation below, where the fluorescent signal of the group to which the vehicle (DMSO) was added was regarded as 100%, and the fluorescent signal before the addition of substance P was regarded as 0%. Intracellular calcium concentration (%)—(Fluorescent signal of test compound addition group)/(Fluorescent signal of vehicle addition group)×100
The intracellular calcium concentration (%) calculated was regarded as the remaining agonist activity of substance P (Substance P-Response Remaining: SPRR). In the table, Ex. No. means the Example number. SPRR (%) is the value obtained when the concentration of substance P was 1 μM and the concentration of the compound was 0.1 μM.

[2] = target: human CYP3A4 (Homo sapiens (Human), UniProt P08684); test: Inhibitory effect on CYP3A4; format: in vitro ADME; details: 30-minute pre-incubation, Luciferin-IPA substrate; read-out: IC50 (μM), CYP3A4 inhibition
Chain of human CYP3A4 (P08684 whole entry): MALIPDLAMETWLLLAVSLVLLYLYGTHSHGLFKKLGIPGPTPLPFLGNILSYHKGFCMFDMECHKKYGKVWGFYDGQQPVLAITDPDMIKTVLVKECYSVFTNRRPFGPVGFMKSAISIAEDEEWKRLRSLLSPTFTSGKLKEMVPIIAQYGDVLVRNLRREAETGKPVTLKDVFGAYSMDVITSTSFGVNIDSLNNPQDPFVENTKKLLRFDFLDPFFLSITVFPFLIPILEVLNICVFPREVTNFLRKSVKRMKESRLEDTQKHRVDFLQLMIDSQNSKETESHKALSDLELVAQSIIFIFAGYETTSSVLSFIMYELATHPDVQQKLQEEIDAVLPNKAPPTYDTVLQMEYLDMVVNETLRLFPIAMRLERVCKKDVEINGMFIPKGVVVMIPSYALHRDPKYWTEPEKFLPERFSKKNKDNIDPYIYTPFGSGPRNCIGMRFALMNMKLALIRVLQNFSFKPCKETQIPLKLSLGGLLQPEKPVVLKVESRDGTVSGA
Protocol: Inhibitory Effect on CYP3A4
Enzyme reaction was performed by incubating in a potassium phosphate buffer solution (pH 7.4) containing 1 nM to 20 μM test compound, 3.2 mM magnesium chloride, 0.2 pmol human CYP3A4 (BD Biosciences), 0.5 mM reduced nicotinamide adenine dinucleotide phosphate (NADPH) and 3 μM Luciferin-IPA (Promega) at 37° C. for 10 minutes. The volume of the reaction solution was 50 μL/well. The 30-minute pre-incubation group was incubated at 37° C. for 30 minutes before adding tire substrate, the Luciferin-IPA solution (12.5 μL/well). At the end of the enzyme reaction, 50 μL/well of a Luciferin detection reagent (Promega) was added to the wells, and the plate was left at room temperature for 20 minutes. Then, the emission intensities were measured with Infinite M1000 (TECAN). The enzyme activities (%) relative to the value of the group to which the test compound was not added were calculated.

Chain of human NK1 receptor (P25103 whole entry): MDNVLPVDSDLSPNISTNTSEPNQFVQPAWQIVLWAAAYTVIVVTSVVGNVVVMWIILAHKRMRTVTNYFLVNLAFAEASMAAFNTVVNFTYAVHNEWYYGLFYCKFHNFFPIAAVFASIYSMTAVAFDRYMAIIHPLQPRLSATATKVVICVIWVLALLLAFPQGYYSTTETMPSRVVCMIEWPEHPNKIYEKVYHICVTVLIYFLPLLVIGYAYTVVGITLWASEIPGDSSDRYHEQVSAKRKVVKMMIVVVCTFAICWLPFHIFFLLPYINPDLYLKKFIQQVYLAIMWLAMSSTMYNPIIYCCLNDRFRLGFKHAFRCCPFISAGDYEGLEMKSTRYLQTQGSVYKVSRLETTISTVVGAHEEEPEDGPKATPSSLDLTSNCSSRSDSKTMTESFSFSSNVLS

remaining activity at 0.1 µM [1] | IC50 [2] | SMILES
5.4% | 2.7 µM | Cc1cc(F)ccc1-c1cc([C@H]2CC[C@H](C(C)(C)C(=O)O)CC2)ncc1N(C)C(=O)C(C)(C)c1cc(C(F)(F)F)cc(C(F)(F)F)c1 [Example 11, trans-2-{4-[5-{[2-(3,5-Bistrifluoromethylphenyl)-2-methylpropionyl]methylamino}-4-(4-fluoro-2-methylphenyl)pyridin-2-yl]cyclohexyl}-2-methylpropionic Acid]
42% | 6.9 µM | Cc1ccccc1-c1cc(C2CCC(CC(=O)O)CC2)ncc1N(C)C(=O)C(C)(C)c1cc(C(F)(F)F)cc(C(F)(F)F)c1 (centres unmarked) [Example 9, {4-[5-{[2-(3,5-Bistrifluoromethylphenyl)-2-methylpropionyl]methylamino}-4-ortho-tolylpyridine-yl]-cyclohexyl}acetic Acid]
31% | 6.1 µM | Cc1cc(F)ccc1-c1cc(C2CCC(CC(=O)O)CC2)nc(C#N)c1N(C)C(=O)C(C)(C)c1cc(C(F)(F)F)cc(C(F)(F)F)c1 (centres unmarked) [Example 8, {4-[5-{[2-(3,5-Bistrifluoromethylphenyl)-2-methylpropionyl]methylamino}-6-cyano-4-(4-fluoro-2-methylphenyl)pyridin-2-yl]cyclohexyl}acetic Acid]
20% | 13 µM | Cc1cc(F)ccc1-c1cc(C2CCC(C(=O)O)CC2)ncc1N(C)C(=O)C(C)(C)c1cc(C(F)(F)F)cc(C(F)(F)F)c1 (centres unmarked) [Example 1, 4-[5-{[2-(3,5-Bistrifluoromethylphenyl)-2-methylpropionyl]methylamino}-4-(4-fluoro-2-methylphenyl)pyridin-2-yl]cyclohexanecarboxylic Acid]
2.8% | 5.5 µM | Cc1cc(F)ccc1-c1cc([C@H]2CC[C@H](CC(=O)O)CC2)nc(C#N)c1N(C)C(=O)C(C)(C)c1cc(C(F)(F)F)cc(C(F)(F)F)c1 [Example 20, trans-{4-[5-{[2-(3,5-Bistrifluoromethylphenyl)-2-methylpropionyl]methylamino}-6-cyano--4-(4-fluoro-2-methylphenyl)-pyridin-2-yl]cyclohexyl}acetic acid]
8.6% | 11 µM | Cc1cc(F)ccc1-c1cc(C2CCC(C(C)C(=O)O)CC2)ncc1N(C)C(=O)C(C)(C)c1cc(C(F)(F)F)cc(C(F)(F)F)c1 (centres unmarked) [Example 10, 2-{4-[5-{[2-(3,5-Bistrifluoromethylphenyl)-2-methylpropionyl]methylamino}-4-(4-fluoro-2-methylphenyl)pyridin-2-yl]cyclohexyl}propionic Acid]
37% | 3.1 µM | Cc1ccccc1-c1cc(C2CCC(CC(=O)O)CC2)nc(C#N)c1N(C)C(=O)C(C)(C)c1cc(C(F)(F)F)cc(C(F)(F)F)c1 (centres unmarked) [Example 16, [4-(5-{[2-(3,5-Bistrifluoromethylphenyl)-2-methylpropionyl]methylamino}-6-cyano-4-ortho-tolylpyridin-2-yl)cyclohexyl]acetic Acid]
36% | 9.4 µM | Cc1cc(F)ccc1-c1cc(C2CCCC(CC(=O)O)C2)ncc1N(C)C(=O)C(C)(C)c1cc(C(F)(F)F)cc(C(F)(F)F)c1 (centres unmarked) [Example 3, {3-[5-{[2-(3,5-Bistrifluoromethylphenyl)-2-methylpropionyl]methylamino}-4-(4-fluoro-2-methylphenyl)pyridin-2-yl]cyclohexyl}acetic Acid]
5.1% | 8.2 µM | Cc1cc(F)ccc1-c1cc([C@H]2CC[C@H](CC(=O)O)CC2)ncc1N(C)C(=O)C(C)(C)c1cc(C(F)(F)F)cc(C(F)(F)F)c1 [Example 13, trans-{4-[5-{[2-(3,5-Bistrifluoromethylphenyl)-2-methylpropionyl]methylamino}-4-(4-fluoro-2-methylphenyl)pyridin-2-yl]cyclohexyl}acetic acid]
9.4% | 11 µM | Cc1cc(F)ccc1-c1cc(C2CCC3(CC2)CC3C(=O)O)ncc1N(C)C(=O)C(C)(C)c1cc(C(F)(F)F)cc(C(F)(F)F)c1 (centres unmarked) [Example 7, 6-[5-{[2-(3,5-Bistrifluoromethylphenyl)-2-methylpropionyl]methylamino}-4-(4-fluoro-2-methylphenyl)pyridin-2-yl]spiro[2.5]octane-1-carboxylic Acid]
57% | 7.1 µM | Cc1cc(F)ccc1-c1cc(C2(C)CCCC(CC(=O)O)C2)ncc1N(C)C(=O)C(C)(C)c1cc(C(F)(F)F)cc(C(F)(F)F)c1 (centres unmarked) [Example 4, {3-[5-{[2-(3,5-Bistrifluoromethylphenyl)-2-methylpropionyl]methylamino}-4-(4-fluoro-2-methylphenyl)pyridin-2-yl]-3-methylcyclohexyl}acetic Acid]
22% | 7.5 µM | Cc1cc(F)ccc1-c1cc([C@H]2CC[C@@H](CC(=O)O)CC2)ncc1N(C)C(=O)C(C)(C)c1cc(C(F)(F)F)cc(C(F)(F)F)c1 [Example 14, cis-{4-[5-{[2-(3,5-bistrifluoromethylphenyl)-2-methylpropionyl]methylamino}-4-(4-fluoro-2-methylphenyl)pyridin-2-yl]cyclohexyl}acetic acid]
36% | 4.2 µM | Cc1cc(F)ccc1-c1cc([C@H]2CC[C@@H](CC(=O)O)CC2)nc(C#N)c1N(C)C(=O)C(C)(C)c1cc(C(F)(F)F)cc(C(F)(F)F)c1 [Example 21, cis-{4-[5-{[2-(3,5-bistrifluoromethylphenyl)-2-methylpropionyl]methylamino}-6-cyano-4-(4-fluoro-2-methylphenyl)pyridin-2-yl]cyclohexyl}acetic acid]

— patent US10011568B2, “Cyclohexyl pyridine derivative” (priority 2014, dated 2018)
